Results reported in PMC6792350 (Environmental Health Perspectives, 2019).

How the values were obtained:
[1] = Noncompartmental toxicokinetic analysis of plasma after IV dosing in piglets; settings: for time after which plasma concentrations were below the LOQ: after IV BPA and BPS administration; for time of maximal plasma glucuronide concentration: after IV BPA and BPS dosing; for Cmax/dose / AUC0-tlast/dose / Tmax: plasma, mean±SD; for Cmax/dose: IV BPA 21.9 or 20 μmol/kg (n=15) or IV BPS 20 μmol/kg (n=16), glucuronides after parent dosing; for AUC0-tlast/dose: IV BPA or BPS dosing; for Tmax: glucuronide after IV BPA or BPS dosing
Protocol: Table 1 summarizes the protocol of the experiments and the plasma and urine datasets further considered for TK analyses. A first experiment (Exp. 1) was performed in 8 male piglets age 42 d ( 20.8±1.6kg BW) to investigate oral BPA TK. […] BPA data obtained after IV BPA administrations had already been used to evaluate human BPA clearance using an allometric approach ([Collet et al. 2015]).
For the IV administrations, BPA powder was dissolved in ethanol–propylene glycol (1:49, vol:vol) at 50mg/mL (Exp.1 and 2) and in ethanol–saline (1:2, vol:vol) at 23mg/mL (Exp. 5).
During the first 24 h of sampling, the piglets were housed individually in stainless steel cages.
(§1) The plasma analytes concentration–time data from individual piglets were used to derive the maximum concentration (Cmax), and the time to maximum concentration (Tmax). The area under the plasma concentration–time curves from dosing time to the time of the last measurable concentration ( AUC0–tlast ) were calculated using the linear trapezoidal rule (Equation 1). (1) AUC0–tlast=∑0tlast(Ci−1+Ci/2)×(ti−ti−1) where Ci is the concentration obtained at the time i ( ti ).
(§2) The area under the plasma concentration time curve from t=0 to infinity ( AUC0–inf ) was obtained using Equation 2. (2) AUC0–inf=AUC0–tlast+AUCtlast–inf where AUCtlast–inf is the area extrapolated from the last observation to infinity, calculated according to Equation 3: (3) AUCtlast–inf=Clast/λz where Clast is the last observed quantifiable plasma concentration, and λz is the slope of the terminal phase, as estimated by linear regression using the best fit option of Phoenix®.

[2] = Population semiphysiologically based 9-compartment TK model (NLME) of plasma and urine data in piglets; settings: for tvK25, rate constant liver to plasma for the glucuronide, Mean / tvK50, glucuronide elimination rate constant from plasma to urine, Mean / tvK56, distribution rate constant, Mean / tvK65, distribution rate constant, Mean / tvK105, rate constant of glucuronide formed by enterocytes absorbed into the systemic circulation, Mean / tvV, volume of the central compartment, Mean: bootstrap mean; for tvK25, rate constant liver to plasma for the glucuronide, Median / tvK50, glucuronide elimination rate constant from plasma to urine, Median / tvK56, distribution rate constant, Median / tvK65, distribution rate constant, Median / tvK105, rate constant of glucuronide formed by enterocytes absorbed into the systemic circulation, Median / tvV, volume of the central compartment, Median: bootstrap median; for mean volume of the central compartment: pig, in vivo; for tvV, volume of the central compartment, Mean / tvV, volume of the central compartment, Median: population primary parameter
Protocol: The NLME model was therefore developed by combining the plasma and urinary data sets from the five TK experiments carried out in piglets, except for the urinary BPA concentration obtained after oral administration of BPA.
Different compartmental models and submodels were tested and compared using the likelihood ratio test (LRT). The primary parameters of the model, namely the volumes of distribution ( VBPA , VBPAG , VBPS , VBPSG ) and the first-order rate constants ( Kij ) and their associated precisions [standard error (SE)] were estimated by minimizing an objective function value (OFV) expressed as minus twice the log of the likelihood estimation ( −2LL ).
The between-subject variability (BSV) of the parameters was evaluated using the exponential model θparameter_i=θtv_parameter×exp(ηi) , where θparameter_i is the parameter estimated for the i^th individual, θtv_parameter is the typical population value of the parameter, and ηi is the deviation associated with the i^th individual from the corresponding value of the parameter at the population level. The distribution of ηi was assumed to be normal with a mean of 0 and a variance ω² . The BSV was reported as a coefficient of variation (CV) in the original scale CV(%)=100× exp (ω^2)−1 .
The residual variance was modeled using a combined additive and proportional error model Cobsij=Cpredij(1+ε1ij)+ε2ij where Cobsij and Cpredij are respectively the j^th observed and predicted concentrations for the i^th individual and ε1ij and ε2ij the multiplicative and additive residual errors.
The bootstrap tool (20 replicates) was used to evaluate the mean, median, SE, and coefficient of variation of the parameter estimates. The predictive ability of the model was checked graphically by plotting Visual Predictive Check plots to compare the observed data with the selected quantiles (here 20th, 50th and 80th percentiles) of data simulated using the model and obtained from 200–1,000 replicates from each animal based on the structure of the original data (i.e., dosing, timing and number of samples).
For the LRT test, the critical value of the χ^2 distribution considered for a given nominal risk and a given number of degrees of freedom was obtained using the Excel function CHISQ.INV.RT().
Figure 1. Schematic representation of the compartmental model. […] The link between the two central compartments was modeled with a compartment (CP2) that should be viewed as the liver. […] The fraction of absorbed BPA that is not hepatically transformed reaches the CP3 via K23 . The exchanges between CP2 and CP3 are bilateral, K32 being the rate constant between CP3 and CP2 and K23 the rate constant between CP2 and CP3. […] It was assumed that no phase-two metabolite other than BPAG (BPSG) was formed.
(12) Bioavailability=K12/K12+K110+K10×(1−K25/K25+K23) with K10 , K12 , K110 , K23; K25 as defined above.

[3] = Noncompartmental toxicokinetic analysis of plasma after oral (gavage) dosing in piglets; settings: plasma, mean±SD; for Cmax/dose: oral BPA 438 or 200 μmol/kg (n=12) or oral BPS 40 or 200 μmol/kg (n=10); for AUClast/dose / Tmax: oral BPA or BPS dosing
Protocol: Table 1 summarizes the protocol of the experiments and the plasma and urine datasets further considered for TK analyses.
For administrations by gavage, BPA powder was dissolved in ethanol–corn oil (1:9, vol:vol) at 100mg/mL (Exp. 1).
as §1, §2

[4] = Cumulative urinary excretion after IV and oral dosing in piglets; settings: for fraction of parent dose recovered in urine as glucuronide, mean±SD / fraction of parent dose recovered in urine as glucuronide, range: by 24 h
Protocol: Blood samples were collected in heparinized polypropylene tubes, immediately chilled in ice and centrifuged for 10 min at 3,000×g at 4°C, and the supernatant plasma was stored in polypropylene tubes at −20°C until assay. Total urine was filtered through a nylon mesh ( 250μm ) and collected in glass containers and chilled in ice. The volume of each urine sample and the sampling time were recorded. A urine sample was immediately chilled in ice and centrifuged for 10 min at 3,000×g at 4°C and stored at −20°C until assayed.
Analytes were quantified by Acquity UPLC-MS/MS (Waters Corporation).
All TK analyses were performed using the Phoenix® NLME (version 8.0; Pharsight Corporation). The plasma mass concentrations were converted into molar concentrations before analysis.

[5] = IV BPA (n=7) or IV BPS (n=16) dosing
[6] = oral BPA (n=4) or oral BPS (n=10) dosing

SMILES	time after which plasma concentrations were below the LOQ [1] [h]	time of maximal plasma glucuronide concentration [1]	Cmax/dose [1] [μmol/L per μmol/kg BW]	AUC0-tlast/dose [1] [μmol×h/L per μmol/kg]	Tmax [1] [min]	tvK25, rate constant liver to plasma for the glucuronide, Mean [2] [h⁻¹]	tvK50, glucuronide elimination rate constant from plasma to urine, Mean [2] [h⁻¹]	tvK56, distribution rate constant, Mean [2] [h⁻¹]	tvK65, distribution rate constant, Mean [2] [h⁻¹]	tvK105, rate constant of glucuronide formed by enterocytes absorbed into the systemic circulation, Mean [2] [h⁻¹]	tvK25, rate constant liver to plasma for the glucuronide, Median [2] [h⁻¹]	tvK50, glucuronide elimination rate constant from plasma to urine, Median [2] [h⁻¹]	tvK56, distribution rate constant, Median [2] [h⁻¹]	tvK65, distribution rate constant, Median [2] [h⁻¹]	tvK105, rate constant of glucuronide formed by enterocytes absorbed into the systemic circulation, Median [2] [h⁻¹]	mean volume of the central compartment [2] [L/kg]	tvV, volume of the central compartment, Mean [2] [L/kg]	tvV, volume of the central compartment, Median [2] [L/kg]	Cmax/dose [3] [μmol/L per μmol/kg BW]	AUClast/dose [3] [μmol×h/L per μmol/kg BW]	also measured
CC(C)(c1ccc(O)cc1)c1ccc(O[C@@H]2O[C@H](C(=O)O)[C@@H](O)[C@H](O)[C@H]2O)cc1 [BPAG, Bisphenol A glucuronide]	12 to 24	about 20 min	1.80±0.85	2.04±0.58	21 ± 20.4	137.08	2.750	1.45	0.015	0.207	91.87	2.547	1.45	0.015	0.217	0.11	0.107	0.112	0.58±0.34	1.75±0.73	Tmax [3]: 74.4 ± 64.2 min; fraction of parent dose recovered in urine as glucuronide, mean±SD [4, 5]: 97.0±27.6%; fraction of parent dose recovered in urine as glucuronide, range ([4]; IV BPA or BPS dosing): 63.1–135.7%; fraction of parent dose recovered in urine as glucuronide, mean±SD [4, 6]: 62.2±15.8%; fraction of parent dose recovered in urine as glucuronide, range ([4]; oral BPA or BPS dosing): 49.5–80.2%
O=S(=O)(c1ccc(O)cc1)c1ccc(O)cc1 [BPS, bisphenol S]																					part of the dose eliminated in urine ([4]; 3 h after dosing): About half; unconjugated compound in urine, fraction of IV dose ([4]; IV BPA and BPS doses): 0.027±0.0084%
O=C([O-])[C@H]1O[C@@H](Oc2ccc(S(=O)(=O)c3ccc(O)cc3)cc2)[C@H](O)[C@@H](O)[C@@H]1O.[Na+] [BPSG, Bis(4-hydroxyphenyl) Sulfone O-β-D-Glucuronide-Sodium Salt]	8 to 12	about 20 min	2.55±0.58	2.59±0.77	17.4 ± 11.4	66.6	1.818	0.730	0.006	0.534	62.147	1.832	0.655	0.006	0.523	0.14	0.135	0.137	2.94±4.78	2.87±0.99	Tmax [3]: 43.8 ± 18 min; fraction of the IV BPSG dose recovered in urine, range ([4]; 24 h post dosing, IV BPSG): 40.1–69.8%; mean fraction of the IV BPSG dose recovered in urine ([4]; 24 h post dosing, IV BPSG): 59.0±9.96%; fraction of parent dose recovered in urine as glucuronide, mean±SD [4, 5]: 76.8±20.1%; fraction of parent dose recovered in urine as glucuronide, range ([4]; IV BPA or BPS dosing): 36.3–107.9%; fraction of parent dose recovered in urine as glucuronide, mean±SD [4, 6]: 86.5±23.9%; fraction of parent dose recovered in urine as glucuronide, range ([4]; oral BPA or BPS dosing): 65.5–126.8%
